Data on 2 compounds can be found in patent US20190062671A1, “PERFUME COMPOSITIONS” (Givaudan SA, priority 2016, published 2019).

“Also recorded” adds a separate entry of the source.

Data set [1] has as its system Nrf2-dependent luciferase (ARE-element of the gene AKR1C2) in KeratinoSens cell line. Description: KeratinoSens assay, luciferase gene induction (OECD TG 442d). Particulars: single chemicals; for Rating in the KeratinoSens assay (skin sensitization): threshold 1.5-fold induction. As to the method:
The level of skin sensitization can reliably and quantitatively be measured experimentally by the KeratinoSens® method, which measures the induction of Nrf2-dependent luciferase in a skin cell line.
(§1) Compounds were tested using the commercial KeratinoSens® assay for skin sensitization. The KeratinoSens® test compares the potential skin sensitization risk of chemicals. […] KeratinoSens® cells were grown for 24 h in 96-well plates. The medium was then replaced with medium containing the test chemical and the solvent dimethylsulfoxide (DMSO) at a final level of 1% (v/v). Each compound was tested at 12 binary dilutions in the range from 0.98 to 2000 μM. Cells were incubated for 48 h with the test agents, and then luciferase activity and cytotoxicity were determined. This full procedure was repeated three times for each chemical. For each chemical in each repetition and at each concentration, the gene induction compared to DMSO controls and the wells with statistically significant induction over the threshold of 1.5 (i.e. 50% enhanced gene activity) were determined. Furthermore, the maximal fold-induction (Imax) and the EC1.5 value (concentration in μM for induction above the threshold) were calculated.
(§2) All compositions were tested in the concentration range from 0.2-400 ppm (parts per million in weights per volume).

For another data set, the system named is KeratinoSens cells. Kind of data set: Cytotoxicity / cellular viability in the KeratinoSens assay. Particulars: single chemicals, 48 h. The data set is classed as cell-based. Here is the method: as §1, §2
Data set [2] addresses test peptide Cor1C-420 (Ac-NKKCDLF) (Homo sapiens, UniProt Q9ULV4, I423F). Description: Modified direct peptide reactivity assay with LC-MS detection of peptide adducts. As to conditions: for Peptide reactivity: quantification, % of parent peptide modified: pH 7.5. As to the method: Alternatively, the sensitization potential can be quantified by measuring the reactivity of test chemicals with peptides.
It is based on the fact that allergenic chemicals must react with a peptide/protein in order to be immunogenic.
The samples were incubated for 24 h at 37° C. and analysed by LC-MS analysis on a VELOS PRO Mass spectrometer (Thermo […], San Jose, Calif., U.S.A.) operated in the ESI(+) mode.
Mass spectra were recorded from 200-2000 amu. A ZORBAX Eclipse XDB-C18 column, 2.1 mm ID, 150 mm, 5-Micron (Agilent Technologies) was used. The mobile phase consisted of H2O (A) and methanol (B) each containing 0.1% formic acid (v/v). The solvent flow was 250 μl/min and the following gradient (ratio A:B) was used: 0 min, 95:5; 2 min, 40:60; 10 min, 2:98; 12 min, 2:98. The integration was performed with Xcalibur Quan Browser™.
In order to detect formation of modified peptides, the specific ion trace for a new adduct with the mass of the test chemical added to the test peptide is extracted, and the peak of the peptide-adduct is integrated. Peptide adduct formation is a particular sensitive endpoint to determine reactive, and thus allergenic nature of compounds.

The mark [3] stands for this setting: 1 mM test chemical, 0.1 mM peptide, 24 h at 37° C.

Consider `CC(C)=CCC(C)/C=C(\C)C=O` (centres unmarked) [2,4,7-trimethyl-2,6,-octadienal], for which the “Imax (fold maximal gene induction)” value in data set [1] (0.98 to 2000 μM, 48 h) stood at 1.40 fold. Besides, in data set [1] (48 h, n.i. = no induction above threshold of 1.5 (negative rating)), the “Concentration for 1.5-fold gene induction (EC 1.5 in μM)” value is on record as “n.i”. In addition, the “Rating in the KeratinoSens assay (skin sensitization)” value in data set [1] is recorded as “non-sensitizing; also recorded: does not surpass the threshold for a positive rating up to the top dose”. In addition, the “Concentration for 50% Cytotoxicity” value in the data set on KeratinoSens cells was 317.8 µM. In addition, in data set [2] (setting [3]), the “Peptide reactivity: adduct observation” value is on record as “only traces were formed” and the “Peptide reactivity: quantification, % of parent peptide modified” value was “observed, 0.3% of parent”. In data set [2] (1 mM test chemical, 0.1 mM peptide, 24 h at 37° C., listed as II), the “Peptide reactivity: adduct observation” value is “Extremely low activity,”. The “Peptide reactivity / adduct amount, fold lower as compared to Citral” value in data set [2] (relative to Citral) came to 27 fold.
Consider `CC(C)=CCCC(C)=CC=O` [Citral, 3,7-dimethyl-2,6-octadienal, reference compound], for which the “Rating in the KeratinoSens assay (skin sensitization)” value in data set [1] was “highly active”. The “Concentration for 50% Cytotoxicity” value in the data set with KeratinoSens cells turned out to be 95.5 µM. The “Peptide reactivity: quantification, % of parent peptide modified” value in data set [2] (24 h, 1 mM) was 8.1% of parent.
